Experimental data: patent US20220024891A1 (The Board of Regents of the University of Texas System, priority 2018, published 2022)

| melting point | SMILES |
| --- | --- |
| 90 to 93 °C | Cc1cccc(S(=O)(=O)N2CCC(N3CCC(C)CC3)CC2)c1 [compound 26, 4-Methyl-1′-(m-tolylsulfonyl)-1,4′-bipiperidine] |
| 157 to 159 °C | CC1CCN(C2CCN(S(=O)(=O)c3ccc(OCc4ccccc4)cc3)CC2)CC1 [compound 20, 1′-((4-(Benzyloxy)phenyl)sulfonyl)-4-methyl-1,4′-bipiperidine] |
| 175 to 178 °C | CC1CCN(C2CCN(S(=O)(=O)c3ccc(C(F)(F)F)cc3)CC2)CC1 [compound 15, 4-Methyl-1′-((4-(trifluoromethyl)phenyl)sulfonyl)-1,4′-bipiperidine] |
| 82 to 84 °C | CC1CCN(C2CCN(S(=O)(=O)c3ccccc3Br)CC2)CC1 [compound 30, 1′-((2-Bromophenyl)sulfonyl)-4-methyl-1,4′-bipiperidine] |
| 122 to 124 °C | CC1CCN(C2CCN(S(=O)(=O)c3cccc(Cl)c3)CC2)CC1 [compound 28, 1′-((3-Chlorophenyl)sulfonyl)-4-methyl-1,4′-bipiperidine] |
| 178 to 182 °C | CC1CCN(C2CCN(S(=O)(=O)c3ccc(Cl)nc3)CC2)CC1 [compound 74, 1′-((6-Chloropyridin-3-yl)sulfonyl)-4-methyl-1,4′-bipiperidine] |
| 71 to 74 °C | Cc1cc(C)c(S(=O)(=O)N2CCC(C=O)CC2)c(C)c1 [compound 138, 1-(mesitylsulfonyl)piperidine-4-carbaldehyde] |
| 103 to 105 °C | Cc1ccc(-c2cccc(S(=O)(=O)N3CCC(N4CCC(C)CC4)CC3)c2)cc1 [compound 64, 4-Methyl-1′-((4′-methyl-[1,1′-biphenyl]-3-yl)sulfonyl)-1,4′-bipiperidine] |
| 95 to 98 °C | COc1cc(C)ccc1S(=O)(=O)N1CCC(N2CCC(C)CC2)CC1 [compound 34, 1′-((2-Methoxy-4-methylphenyl)sulfonyl)-4-methyl-1,4′-bipiperidine] |
| 98 to 102 °C | COc1ccc(Br)cc1S(=O)(=O)N1CCC(N2CCC(C)CC2)CC1 [compound 33, 1′-((5-Bromo-2-methoxyphenyl)sulfonyl)-4-methyl-1,4′-bipiperidine] |
| 129 to 132 °C | CC1CCN(C2CCN(S(=O)(=O)c3ccc(Cl)c4ccccc34)CC2)CC1 [compound 88, 1′-((4-Chloronaphthalen-1-yl)sulfonyl)-4-methyl-1,4′-bipiperidine] |
| 81 to 83 °C | COc1cccc(S(=O)(=O)N2CCC(N3CCC(C)CC3)CC2)c1 [compound 23, 1′-((3-Methoxyphenyl)sulfonyl)-4-methyl-1,4′-bipiperidine] |
| 89 to 91 °C | Cc1cc(Cl)cc(Cl)c1S(=O)(=O)N1CCC(N2CCC(C)CC2)CC1 [compound 49, 1′-((2,4-Dichloro-6-methylphenyl)sulfonyl)-4-methyl-1,4′-bipiperidine] |
| 128 to 132 °C | CC1CCN(C2CCN(S(=O)(=O)c3cc(Br)cc4c3OCC4)CC2)CC1 [compound 86, 1′-((5-Bromo-2,3-dihydrobenzofuran-7-yl)sulfonyl)-4-methyl-1,4′-bipiperidine] |
| 139 to 142 °C | CC1CCN(C2CCN(S(=O)(=O)c3cn(C)cn3)CC2)CC1 [compound 78, 4-Methyl-1′-((1-methyl-1H-imidazol-4-yl)sulfonyl)-1,4′-bipiperidine] |
| 87 to 91 °C | CCc1cc(Br)ccc1S(=O)(=O)N1CCC(N2CCC(C)CC2)CC1 [compound 38, 1′-((4-Bromo-2-ethylphenyl)sulfonyl)-4-methyl-1,4′-bipiperidine] |
| 144 to 147 °C | CCCC(=O)NC1CCN(S(=O)(=O)c2c(C)cc(C)cc2C)CC1 [compound 118, N-(1-(Mesitylsulfonyl)piperidin-4-yl)butyramide] |
| 158 to 161 °C | Cc1noc(C)c1S(=O)(=O)N1CCC(N2CCC(C)CC2)CC1 [compound 79, 3,5-Dimethyl-4-((4-methyl-[1,4′-bipiperidin]-1′-yl)sulfonyl)isoxazole] |
| 123 to 126 °C | CC1CCN(C2CCN(S(=O)(=O)c3cccc4cnccc34)CC2)CC1 [compound 90, 5-((4-Methyl-[1,4′-bipiperidin]-1′-yl)sulfonyl)isoquinoline] |
| > 300 °C | Cc1cc(C)c(S(=O)(=O)N2CCN(C3CN4CCC3CC4)CC2)c(C)c1 (stereo not drawn) [compound 127, 3-(4-(Mesitylsulfonyl)piperazin-1-yl)quinuclidine] |
| 168 to 170 °C | CC1CCN(C2CCN(S(=O)(=O)c3ccc(OC(F)(F)F)cc3)CC2)CC1 [compound 21, 4-Methyl-1′-((4-(trifluoromethoxy)phenyl)sulfonyl)-1,4′-bipiperidine] |
| 107 to 109 °C | COc1ccc(-c2cccc(S(=O)(=O)N3CCC(N4CCC(C)CC4)CC3)c2)cc1 [compound 63, 1′-((4′-Methoxy-[1,1′-biphenyl]-3-yl)sulfonyl)-4-methyl-1,4′-bipiperidine] |
| 182 to 184 °C | Cc1cc(C)c(S(=O)(=O)N2CCN(C34CC5CC(CC(C5)C3)C4)CC2)c(C)c1 [compound 128, 1-(Adamantan-1-yl)-4-(mesitylsulfonyl)piperazine] |

| melting point | SMILES |
| --- | --- |
| 184 to 186 °C | CC1CCN(C2CCN(S(=O)(=O)c3ccc(C#N)cc3)CC2)CC1 [compound 9, 4-((4-Methyl-[1,4′-bipiperidin]-1′-yl)sulfonyl)benzonitrile] |
| 118 to 121 °C | Cc1ccc(C#N)c(S(=O)(=O)N2CCC(N3CCC(C)CC3)CC2)c1 [compound 36, 4-Methyl-2-((4-methyl-[1,4′-bipiperidin]-1′-yl)sulfonyl)benzonitrile] |
| 106 to 109 °C | CC1CCN(C2CCN(S(=O)(=O)c3ccccc3-c3ccccc3)CC2)CC1 [compound 51, 1′-([1,1′-Biphenyl]-2-ylsulfonyl)-4-methyl-1,4′-bipiperidine] |
| 136 to 139 °C | CC1CCN(CC2CCN(S(=O)(=O)c3ccc(-c4ccccc4F)cc3)CC2)CC1 [compound 154, 1-((2′-fluoro-[1,1′-biphenyl]-4-yl)sulfonyl)-4-((4-methylpiperidin-1-yl)methyl)piperidine] |
| 132 to 134 °C | COc1ccc(S(=O)(=O)N2CCC(N3CCC(C)CC3)CC2)cc1OC [compound 31, 1′-((3,4-Dimethoxyphenyl)sulfonyl)-4-methyl-1,4′-bipiperidine] |
| 144 to 147 °C | CC1CCN(C2CCN(S(=O)(=O)c3ccc(C(C)C)cc3)CC2)CC1 [compound 13, 1′-((4-Isopropylphenyl)sulfonyl)-4-methyl-1,4′-bipiperidine] |
| 137 to 139 °C | CC1CCN(CC2CCN(S(=O)(=O)c3ccc4ncsc4c3)CC2)CC1 [compound 148, 6-((4-((4-methylpiperidin-1-yl)methyl)piperidin-1-yl)sulfonyl)benzo[d]thiazole] |
| 148 to 151 °C | CC1CCN(CC2CCN(S(=O)(=O)c3ccc(-c4ccccc4)cc3)CC2)CC1 [compound 155, 1-([1,1′-biphenyl]-4-ylsulfonyl)-4-((4-methylpiperidin-1-yl)methyl)piperidine] |
| 122 to 124 °C | CC1CCN(C2CCN(S(=O)(=O)c3cccnc3Cl)CC2)CC1 [compound 72, 1′-((2-Chloropyridin-3-yl)sulfonyl)-4-methyl-1,4′-bipiperidine] |
| 161 to 164 °C | C#CCC1CCN(C2CCN(S(=O)(=O)c3ccc(Br)cc3)CC2)CC1 [compound 92, 1′-((4-Bromophenyl)sulfonyl)-4-(prop-2-yn-1-yl)-1,4′-bipiperidine] |
| 88 to 91 °C | CC1CCCN(C2CCN(S(=O)(=O)c3ccc(OC(F)F)cc3)CC2)C1 (stereo not drawn) [compound 91, 1′-((4-(Difluoromethoxy)phenyl)sulfonyl)-3-methyl-1,4′-bipiperidine] |
| 195 to 198 °C | COc1ccc(-c2ccc(S(=O)(=O)N3CCC(N4CCC(C)CC4)CC3)cc2)cc1 [compound 58, 1′-((4′-Methoxy-[1,1′-biphenyl]-4-yl)sulfonyl)-4-methyl-1,4′-bipiperidine] |
| 154 to 156 °C | CC1CCN(C2CCN(S(=O)(=O)c3ccccc3)CC2)CC1 [compound 5, 4-methyl-1′-(phenylsulfonyl)-1,4′-bipiperidine] |
| 85 to 88 °C | Cc1cc(C)c(S(=O)(=O)N2CCC(CO)CC2)c(C)c1 [compound 137, (1-(mesitylsulfonyl)piperidin-4-yl)methanol] |
| 120 to 123 °C | Cc1cc(C)cc(-c2cccc(S(=O)(=O)N3CCC(N4CCC(C)CC4)CC3)c2)c1 [compound 69, 1′-((3′,5′-Dimethyl-[1,1′-biphenyl]-3-yl)sulfonyl)-4-methyl-1,4′-bipiperidine] |
| 120 to 123 °C | CC1CCN(C2CCN(S(=O)(=O)c3cccnc3F)CC2)CC1 [compound 73, 1′-((2-Fluoropyridin-3-yl)sulfonyl)-4-methyl-1,4′-bipiperidine] |
| 118 to 121 °C | CCCOc1ccc(S(=O)(=O)N2CCC(N3CCC(C)CC3)CC2)cc1 [compound 18, 4-Methyl-1′-((4-propoxyphenyl)sulfonyl)-1,4′-bipiperidine] |
| 165 to 168 °C | CC1CCN(C2CCN(S(=O)(=O)c3ccc([N+](=O)[O-])cc3)CC2)CC1 [compound 7, 4-Methyl-1′-((4-nitrophenyl)sulfonyl)-1,4′-bipiperidine] |
| 87 to 89 °C | Cc1ccc(S(=O)(=O)N2CCC(N3CCC(C)CC3)CC2)cc1C [compound 37, 1′-((3,4-Dimethylphenyl)sulfonyl)-4-methyl-1,4′-bipiperidine] |
| 173 to 176 °C | CC1CCN(C2CCN(S(=O)(=O)c3ccc(C(C)(C)C)cc3)CC2)CC1 [compound 14, 1′-((4-(Tert-butyl)phenyl)sulfonyl)-4-methyl-1,4′-bipiperidine] |
| 212 to 215 °C | CC1CCN(C2CCN(S(=O)(=O)c3cn(C)c(=O)n(C)c3=O)CC2)CC1 [compound 76, 1,3-Dimethyl-5-((4-methyl-[1,4′-bipiperidin]-1′-yl)sulfonyl)pyrimidine-2,4(1H,3H)-dione] |
| 72 to 75 °C | CC1CCN(C2CCN(C(=O)c3ccc(OC(F)(F)F)cc3)CC2)CC1 [compound 119, (4-Methyl-[1,4′-bipiperidin]-1′-yl)(4-(trifluoromethoxy)phenyl)methanone] |
